Results published in US9944967B2, “Methods for the site-selective introduction of halogen into natural products” (THE REGENTS OF THE UNIVERSITY OF CALIFORNIA, priority 2013, dated 2018).

Key:
DEBSMod6+TE [1] = molecular target: T1, DEBSMod6+TE (Saccharopolyspora erythraea, UniProt Q03133); assay: Acyl-CoA hydrolysis by DEBSMod6+TE (DTNB assay); assay type: biochemical; conditions: for v0 (rate of acyl-CoA hydrolysis): DEBSMod6 + TE (1 μM), acyl-CoA (500 μM), mean ± s.d. (n = 4); for Relative rate of acyl-CoA hydrolysis: relative to methylmalonyl-CoA
T1 construct: the sixth module of DEBS, including the terminal thioesterase (DEBSMod6+TE); His6 (C); made in house; host or cells: E. coli BAP1
Procedure: Hydrolytic activity of DEBSMod6+TE was measured by monitoring the reaction of free CoA with DTNB as described previously (Huang, F., et al., Chem. Biol., 13:475-484 (2006)). Assays were performed at 37° C. in a total volume of 200 μL containing 400 mM sodium phosphate, pH 7.5, 500 μM DTNB, and DEBSMod6+TE (1 μM). Reactions were initiated by addition of acyl-CoA (0.5 mM) and monitored at 412 nm in a Beckman Coulter DU-800 spectrophotometer. Release of CoA was quantified by comparison to a standard curve (5-100 μM).

NphT7 = molecular target: T2, NphT7 (Streptomyces sp., UniProt D7URV0); assay: Acetoacetyl-CoA synthase NphT7 NADPH-coupled assay with PhaB; assay type: biochemical; conditions: NphT7 reaction product
T2 construct: made in house; host or cells: E. coli BL21(de3)T1R
T2 sequence (D7URV0 1-329): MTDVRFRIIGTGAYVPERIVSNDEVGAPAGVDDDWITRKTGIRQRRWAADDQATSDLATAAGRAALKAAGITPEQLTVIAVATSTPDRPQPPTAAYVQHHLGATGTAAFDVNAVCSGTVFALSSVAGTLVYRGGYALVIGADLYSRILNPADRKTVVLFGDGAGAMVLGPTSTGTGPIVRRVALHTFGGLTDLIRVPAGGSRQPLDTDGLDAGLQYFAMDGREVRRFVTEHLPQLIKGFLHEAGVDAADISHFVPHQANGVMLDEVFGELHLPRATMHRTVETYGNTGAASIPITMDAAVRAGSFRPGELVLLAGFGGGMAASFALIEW
Procedure: NphT7 activity was measured using a NADPH-coupled assay with PhaB. Assays were performed at 30° C. in a total volume of 500 μL containing 50 mM HEPES, pH 7.5, NADPH (160 μM), acetyl-CoA (200 μM), PhaB (0.05 mg/mL), NphT7 (0.2 μM for malonyl-CoA; 0.5 μM for fluoromalonyl-CoA) and malonyl-CoA (5-150 μM) or fluoromalonyl-CoA (5-200 μM). Reactions were initiated with the addition of malonyl- or fluoromalonyl-CoA and monitored at 340 nm in an Agilent 8453 diode array spectrophotometer. The PhaB-coupled assay was tested both by doubling NphT7, which doubled the initial velocity with both the fluorinated and non-fluorinated substrates, and also by doubling the amount of PhaB, which led to no difference in initial velocity.

[2] = molecular target: T3, acetyl-CoA carboxylase (ACCase) (Escherichia coli, UniProt P0A9Q5+P0ABD5); assay: Acetyl-CoA carboxylase discontinuous HPLC assay with AckA-Pta; assay type: biochemical, E. coli
T3 construct: made in house; host or cells: E. coli BL21(de3)T1R
Procedure: ACCase activity was measured using a discontinuous HPLC assay. Assays were performed at 30° C. in a total volume of 200 μL containing 50 mM HEPES, pH 7.5, TCEP (10 mM), bovine serum albumin (3 mg/mL), CoA (0.5 mM), ATP (2.5 mM), magnesium chloride (10 mM), sodium bicarbonate (75 mM), acetate or fluoroacetate (10 mM), phosphoenolpyruvate (10 mM), pyruvate kinase (4 U), AckA (0.1 μM), Pta (10 μM) and ACCase (15 μM). The pH of the buffer remained unchanged after addition of sodium bicarbonate. ACCase stock solution was prepared by pre-mixing the protein subunits at equimolar ratio (85 μM) except for AccB, which was added at 1.5-fold molar excess. The reaction was initiated with addition of ATP. Aliquots (20 μL) were removed and quenched by the addition of 70% perchloric acid (1 μL). Insoluble material was removed by centrifugation and the supernatant was analyzed on an Agilent 1200 or 1290 HPLC system on a LiChroCART 250-4 Purospher RP-18e column (5 μm, 4.6×250 mm, Millipore) and monitored at A260 nm. For reactions with acetate, a linear gradient from 2 to 20% acetonitrile over 10 min with 5 mM sodium phosphate and 5 mM sodium citrate with 0.1% trifluoroacetic acid, pH 4.6 as the aqueous mobile phase (1 mL/min) was used to analyze the reaction. […]

DEBSMod6+TE [3] = assay: Triketide lactone production under competitive conditions; assay type: biochemical
Procedure: For reactions with substrate regeneration, assay mixtures contained 400 mM sodium phosphate, pH 7.5, phosphoenolpyruvate (50 mM), TCEP (5 mM), magnesium chloride (10 mM), ATP (2.5 mM), pyruvate kinase (27 U/mL), myokinase (10 U/mL), methylmalonyl-CoA epimerase (5 μM), NDK-SNAC (15 mM) and DEBSMod6+TE (10 μM). Reactions were initiated by simultaneous addition of MatB (40 μM), fluoromalonyl-CoA (1 μM) and malonyl-CoA (1 μM) and incubated at 37° C. for 18-20 h. Protein was removed by filtration through a 3 kDa NWCO membrane at 14,000×g and the filtrate was analyzed by LC-MS. Standards of H-TKL and F-TKL were prepared using a mock reaction mixture (acyl-CoAs replaced by CoAs and NDK-SNAC replaced by N-acetyl cysteamine) as diluent. TKLs were quantified using single ion monitoring, H-TKL in positive mode and F-TKL in negative mode. For reactions without substrate regeneration, assay mixtures contained 400 mM sodium phosphate, pH 7.5, TCEP (5 mM), methylmalonyl-CoA epimerase (5 μM), NDK-SNAC (3 mM) and DEBSMod6+TE (10 μM). Reactions were initiated by adding fluoromalonyl-CoA (1 mM) and malonyl-CoA (1 mM) simultaneously. The mixtures were incubated at 37° C. for 20 h, then quenched, processed and analyzed as described above. H-TKL was monitored using an Agilent 6130 MS operating in positive ion mode, and the limit of detection was verified by spiking samples to 50 nM H-TKL using a standard solution.

DEBSMod2/AT^0 = molecular target: T4, DEBSMod2/AT^0 (Saccharopolyspora erythraea, UniProt Q03131, S2598A); assay: Triketide lactone production using DEBSMod2/AT0; assay type: biochemical; conditions: overnight; for conversion of NDK-SNAC to R-TKL: NDK-SNAC (500 μM), respective acyl-CoA regeneration system
T4 construct: MBP (N); His6 (C); His6 (N); made in house; host or cells: E. coli BAP1 (pRARE2 co-expressed)
Procedure: All assay mixtures contained 400 mM sodium phosphate, pH 7.5, phosphoenolpyruvate (20 mM), TCEP (5 mM), magnesium chloride (5 mM), ATP (2.5 mM), pyruvate kinase (18 U/mL), myokinase (10 U/mL), methylmalonyl-CoA epimerase (5 μM), CoA (1 mM), MatB (20 μM), NDK-SNAC (500 μM) and either methylmalonate, fluoromalonate or malonate (5 mM) as appropriate. Reactions were initiated by addition of DEBSMod2/AT^0 (10 μM) and incubated at 37° C. overnight. Aliquots were removed, quenched by addition of HCl to 1 M, then processed and analyzed as described above.

DEBSMod6+TE [4] = assay: Time-course of TKL and F-TKL formation by DEBSMod6+TE with substrate regeneration; assay type: biochemical
Procedure: Assay and preparative mixtures contained 400 mM sodium phosphate, pH 7.5, phosphoenolpyruvate (50 mM), TCEP (5 mM), magnesium chloride (10 mM), ATP (2.5 mM), pyruvate kinase (27 U/mL), myokinase (10 U/mL), CoA (0.5 mM), methylmalonyl-CoA epimerase (5 μM), MatB (40 μM or as specified) and fluoro- or methylmalonate (10-20 mM). […] This mixture was incubated at 37° C. for 30-45 min and then initiated by addition of the N-acetylcysteamine thioester of (2S,3R)-2-methyl-3-hydroxypentanoic acid (NDK-SNAC, 1-10 mM) (Cane, D. E., et al., J. Am. Chem., 115:527-535 (1993)) and DEBSMod6+TE (10 μM). Aliquots (35 μL) were removed and quenched by addition of 70% perchloric acid (1.75 μL). […] The supernatant was removed and analyzed on a Zorbax Eclipse XDB C-18 column (3.5 μm, 3×150 mm, 35° C., Agilent) using a linear gradient from 0 to 40% acetonitrile over 14 min with 0.1% formic acid as the aqueous mobile phase after an initial hold at 0% acetonitrile for 30 s (0.8 mL/min) Products were monitored using an Agilent G1315D diode array detector (TKL, A260 nm or A275 nm, F-TKL, A247 nm, NDK-SNAC; A260 nm). […] For absolute quantification, each analyte was compared to an external standard curve. […] The concentrations of TKL and H-TKL were determined by ^1H NMR in D2O using the ERETIC method against an external standard of diethylfluoromalonate (75 mM).

[5] = MatB regeneration, equimolar malonyl-CoA and fluoromalonyl-CoA, mean ± s.d. (n = 3)

## CC(C(=O)O)C(=O)SCCNC(=O)CCNC(=O)[C@H](O)C(C)(C)COP(=O)(O)OP(=O)(O)OC[C@H]1O[C@@H](n2cnc3c(N)ncnc32)[C@H](O)[C@@H]1OP(=O)(O)O (stereo partly drawn) [Methylmalonyl-CoA]
DEBSMod6+TE [1]
  v0 (rate of acyl-CoA hydrolysis): 1.36 ± 0.05 µM/min
  Relative rate of acyl-CoA hydrolysis: 1.0

## CC(=O)C(F)C(=O)SCCNC(=O)CCNC(=O)[C@H](O)C(C)(C)COP(=O)(O)OP(=O)(O)OC[C@H]1O[C@@H](n2cnc3c(N)ncnc32)[C@H](O)[C@@H]1OP(=O)(O)O (stereo partly drawn) [acetofluoroacetyl-CoA]
NphT7
  stability under the assay conditions: degrade fairly rapidly

## CC(C)(COP(=O)(O)OP(=O)(O)OC[C@H]1O[C@@H](n2cnc3c(N)ncnc32)[C@H](O)[C@@H]1OP(=O)(O)O)[C@@H](O)C(=O)NCCC(=O)NCCSC(=O)CF [fluoroacetyl-CoA]
[2]; judged from overall extent of reaction
  covalent inactivation of the ACCase: not significant

## CCC1OC(=O)CC(O)C1C (stereo not drawn) [H-TKL, 2-desmethyltriketide lactone, reference compound]
DEBSMod6+TE [3]; [5]
  [H-TKL]: 720 ± 50 nM
DEBSMod6+TE [3]; No regeneration, equimolar malonyl-CoA and fluoromalonyl-CoA (1 mM)
  [H-TKL]: <50 nM
DEBSMod2/AT^0
  conversion of NDK-SNAC to R-TKL: < 0.01%

## CC[C@H]1OC(=O)[C@H](C)C(=O)[C@H]1C [TKL, (2R,4S,5R)-2,4-Dimethyl-3-oxo-5-hydroxy-n-heptanoic acid β-lactone, reference compound]
DEBSMod6+TE [4]; 2.5 mM NDK-SNAC
  Initial rate of TKL formation: 1.5 min⁻¹
DEBSMod2/AT^0
  conversion of NDK-SNAC to R-TKL: all

## CC[C@@H](O)[C@H](C)C(=O)SCCNC(C)=O [NDK-SNAC, (2S,3R)-2-methyl-3-hydroxypentanoyl-N-acetylcysteamine thioester]
DEBSMod2/AT^0; fluoromalonyl-CoA regeneration system
  NDK-SNAC consumed: 82%
DEBSMod2/AT^0; malonyl-CoA regeneration system
  NDK-SNAC consumed: 100%

## CC(C)(COP(=O)(O)OP(=O)(O)OC[C@H]1O[C@@H](n2cnc3c(N)ncnc32)[C@H](O)[C@@H]1OP(=O)(O)O)[C@@H](O)C(=O)NCCC(=O)NCCSC(=O)CC(=O)O [Malonyl-CoA]
DEBSMod6+TE [1]
  v0 (rate of acyl-CoA hydrolysis): 6.1 ± 0.4 µM/min
  Relative rate of acyl-CoA hydrolysis: 4.5

## CC[C@H]1OC(=O)[C@@H](F)C(=O)[C@H]1C [F-TKL, (2S,4S,5R)-2-fluoro-4-methyl-3-oxo-5-hydroxy-n-heptanoic Acid δ-lactone]
DEBSMod6+TE [3]; MatB regeneration
  [F-TKL]/[H-TKL]: 10.3 ± 0.1
DEBSMod6+TE [3]; [5]
  [F-TKL]: 7,390 ± 520 nM
DEBSMod6+TE [3]; No regeneration
  [F-TKL]/[H-TKL]: >9
DEBSMod6+TE [3]; No regeneration, equimolar malonyl-CoA and fluoromalonyl-CoA (1 mM), mean ± s.d. (n = 3)
  [F-TKL]: 450 ± 60 nM
DEBSMod6+TE [3]; direct competition, equimolar (1 mM) fluoromalonyl-CoA and malonyl-CoA
  fold more F-TKL than H-TKL produced: at least 10 fold
DEBSMod6+TE [4]; 10 mM NDK-SNAC
  Initial rate of F-TKL formation: 0.14 h⁻¹
DEBSMod2/AT^0
  conversion of NDK-SNAC to R-TKL: 43%

## O=C(O)CF [Fluoroacetate, reference compound]
[2]; one-pot AckA-Pta/ACCase carboxylation
  fold slower rate of conversion compared to acetate: 4.5 fold
